Test system: 677734-321-R-J1-PDC complex spheroid viability
Assay: Anticancer human tumor 677734-321-R-J1-PDC patient-derived soft tissue sarcoma cell line growth inhibition [POLQ]
Details: for IC50: curve of first compound; for viability, T/C: stronger effect = lower value
Protocol: Multicellular complex tumor spheroid response to Polymerase (POL) inhibitors (novobiocin, ART-558, RP6685) in combination with a variety of drugs and investigational agents in selected tumor cell lines
The POL inhibitors (novobiocin, ART-558, and RP6685) were evaluated both individually and in combination with standard of care and investigational anticancer small molecules within a complex spheroid model of solid tumors. . Complex spheroids include a stromal component modeled by human endothelial cells (HUVEC) and fibroblasts modeled by human mesenchymal stem cells (MSCs). The concentration ranges selected for each drug and investigational agent were based upon clinically achievable concentrations if the clinical Cmax of the agent was known.
Compounds. The drugs and investigational agents: novobiocin (NSC847541), ART-558 (NSC835418), RP-6685 (NSC848927), peposertib (NSC802822), ceralasertib (NSC780249), elimusertib (NSC800525), camonsertib (NSC841442), AZD-1390 (NSC803789), olaparib (NSC753686), talazoparib (NSC767125), rucaparib (NSC756644), sotorasib (NSC818433), MRTX-1133 (NSC836407), SN-38 (NSC673596), topotecan (NSC609699), epotoside (NSC141540), doxorubicin (NSC123127), gemcitabine (NSC613327), 5-fluorouracil (NSC19893), paclitaxel (NSC125973), vemurafenib (NSC761431), MSA-2 (NSC828583), SN-011 (NSC837082), adavosertib (NSC754352), prexasertib (NSC758257), carboplatin (NSC241240) and oxaliplatin (NSC266046), were obtained from the National Cancer Institute (NCI) Developmental Therapeutics Program Chemical Repository (21). The FDA-approved anticancer drug set is available from the Developmental Therapeutics Program at https://dtp.cancer.gov/organization/dscb/obtaining/. […] The stock solutions were prepared in dimethyl sulfoxide (DMSO, Sigma-Aldrich, St. Louis, MO, cat. D2650), except for the platinum compounds which were prepared in saline (Quality Biological, Gaithersburg, MD, cat. 114-055-101), at 800-fold the tested concentration and stored at -70 degrees C prior to their use. All drugs and investigational agents were tested over a range starting from a high concentration at or near the clinical Cmax and decreasing in half-log increments. If the clinical Cmax for an agent had not been determined, the highest concentration tested was 10 microM, except for SN-38, which was tested at a high concentration of 1 microM.
Cell Culture. All cells were maintained in an incubator at 37 degrees C and 5% CO2 with 95% humidity. The PDC lines were cultured according to standard operating procedures established by the NCI PDMR (https://pdmr.cancer.gov). Table 3 of the manuscript, lists the cell lines along with the number of the three cell types plated to form the mct-spheroids and media for tumor cell growth. After thawing, all PDC lines, except 997537-175-T-J1-PDC and 415267-285-R-J2-PDC, were cultured in Matrigel-coated flasks prepared with a working solution of 1X Ham's F-12 nutrient mix, without supplementation (Thermo Fisher Scientific, cat. 11765054), 100 U/mL penicillin-streptomycin (Thermo Fisher Scientific, cat. 15140122), and 2.5% Matrigel (Corning Inc., Corning, NY, cat. 354248) for the first three passages. The two PDC lines 997537-175-T-J1-PDC and 415267-285-R-J2-PDC were cultured on uncoated flasks. The 857933-349-R-J2-PDC line was cultured in 6C/Colon 1B media containing advanced DMEM/F-12 (Thermo Fisher Scientific, cat. 12634028), 10 mM HEPES (Thermo Fisher Scientific, cat. 15630080), 1X GlutaMAX supplement (Thermo Fisher Scientific, cat. 35050061), 0.1 mg/mL primocin (InvivoGen, San Diego, CA, cat. ant-pm-2), 10% defined fetal bovine serum, heat inactivated (HyClone Laboratories Inc., Logan, UT, cat. SH30070.03HI), 50% L-WRN conditioned media (ATCC, cat. CRL-3276), 1.25 mM N-Acetyl-L-cysteine (Sigma-Aldrich, cat. A9165), 10 mM nicotinamide (Sigma-Aldrich, cat. N0636), 1X B-27 supplement (Thermo Fisher Scientific, cat. 17504044), 1X N-2 supplement (Thermo Fisher Scientific, cat. […]

[1] = second compound 0.0316 µM, first compound 0.0316 µM
[2] = second compound 0.0316 µM, first compound 0.1 µM
[3] = second compound 0.0316 µM, first compound 0.316 µM
[4] = second compound 0.0316 µM, first compound 1 µM
[5] = second compound 0.0316 µM, first compound 3.16 µM
[6] = second compound 0.0316 µM, first compound 10 µM
[7] = second compound 0.1 µM, first compound 0.0316 µM
[8] = second compound 0.1 µM, first compound 0.1 µM
[9] = second compound 0.1 µM, first compound 0.316 µM
[10] = second compound 0.1 µM, first compound 1 µM
[11] = second compound 0.1 µM, first compound 3.16 µM
[12] = second compound 0.1 µM, first compound 10 µM
[13] = second compound 0.316 µM, first compound 0.0316 µM
[14] = second compound 0.316 µM, first compound 0.1 µM
[15] = second compound 0.316 µM, first compound 0.316 µM
[16] = second compound 0.316 µM, first compound 1 µM
[17] = second compound 0.316 µM, first compound 3.16 µM
[18] = second compound 0.316 µM, first compound 10 µM
[19] = second compound 1 µM, first compound 0.0316 µM
[20] = second compound 1 µM, first compound 0.1 µM
[21] = second compound 1 µM, first compound 0.316 µM
[22] = second compound 1 µM, first compound 1 µM
[23] = second compound 1 µM, first compound 3.16 µM
[24] = second compound 1 µM, first compound 10 µM
[25] = second compound 3.16 µM, first compound 0.0316 µM
[26] = second compound 3.16 µM, first compound 0.1 µM
[27] = second compound 3.16 µM, first compound 0.316 µM
[28] = second compound 3.16 µM, first compound 1 µM
[29] = second compound 3.16 µM, first compound 3.16 µM
[30] = second compound 3.16 µM, first compound 10 µM
[31] = second compound 10 µM, first compound 0.0316 µM
[32] = second compound 10 µM, first compound 0.1 µM
[33] = second compound 10 µM, first compound 0.316 µM
[34] = second compound 10 µM, first compound 1 µM
[35] = second compound 10 µM, first compound 3.16 µM
[36] = second compound 10 µM, first compound 10 µM
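Also: spheroids exposed to compounds for one week.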
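For viability, T/C in this document: 100% = vehicle DMSO treated spheroids.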

Q: For `COc1cccc2c1C(=O)c1c(O)c3c(c(O)c1C2=O)CC(O)(C(=O)CO)CC3OC1CC(N)C(O)C(C)O1` (centres undefined) + Nc1ccc(C#CCN(C(=O)Cc2ncc(C(F)(F)F)cc2C(F)(F)F)c2ccc(F)cc2)nn1, which IC50 (second compound 0.0316 µM) is on record?
A: 0.0398 µM

Q: And the IC50 (second compound 0.1 µM)?
A: 0.0467 µM

Q: And the IC50 (second compound 0.316 µM)?
A: 0.0444 µM

Q: And the IC50 (second compound 1 µM)?
A: 0.0785 µM

Q: And the IC50 (second compound 3.16 µM)?
A: 0.0406 µM

Q: What about the IC50 (second compound 10 µM) of the same compound?
A: 0.041 µM

Q: What about the viability, T/C [1] of the same compound?
A: 55.1%

Q: What about the viability, T/C [2] of the same compound?
A: 29.5%

Q: And the viability, T/C [3]?
A: 4.74%

Q: What about the viability, T/C [4] of the same compound?
A: 1.41%

Q: And the viability, T/C [5]?
A: 1.65%

Q: What about the viability, T/C [6] of the same compound?
A: 1.2%

Q: And the viability, T/C [7]?
A: 61%

Q: And the viability, T/C [8]?
A: 28.5%

Q: And the viability, T/C [9]?
A: 4.99%

Q: And the viability, T/C [10]?
A: 1.48%

Q: And the viability, T/C [11]?
A: 1.35%

Q: And the viability, T/C [12]?
A: 1.19%

Q: And the viability, T/C [13]?
A: 58.5%

Q: And the viability, T/C [14]?
A: 29.6%

Q: What about the viability, T/C [15] of the same compound?
A: 6.1%

Q: And the viability, T/C [16]?
A: 0.73%

Q: What about the viability, T/C [17] of the same compound?
A: 2.36%

Q: What about the viability, T/C [18] of the same compound?
A: 0.63%

Q: What about the viability, T/C [19] of the same compound?
A: 60%

Q: And the viability, T/C [20]?
A: 47.3%

Q: What about the viability, T/C [21] of the same compound?
A: 4.86%

Q: What about the viability, T/C [22] of the same compound?
A: 1.7%

Q: What about the viability, T/C [23] of the same compound?
A: 1.58%

Q: And the viability, T/C [24]?
A: 0.84%

Q: What about the viability, T/C [25] of the same compound?
A: 58.1%

Q: What about the viability, T/C [26] of the same compound?
A: 21.1%

Q: What about the viability, T/C [27] of the same compound?
A: 4.68%

Q: What about the viability, T/C [28] of the same compound?
A: 0.97%

Q: And the viability, T/C [29]?
A: 1.23%

Q: What about the viability, T/C [30] of the same compound?
A: 0.74%

Q: What about the viability, T/C [31] of the same compound?
A: 57.3%

Q: What about the viability, T/C [32] of the same compound?
A: 24.8%

Q: What about the viability, T/C [33] of the same compound?
A: 4.54%

Q: And the viability, T/C [34]?
A: 1.86%

Q: What about the viability, T/C [35] of the same compound?
A: 2.02%

Q: And the viability, T/C [36]?
A: 0.8%

Q: Which results are given for `O=c1[nH]cc(F)c(=O)[nH]1` + Nc1ccc(C#CCN(C(=O)Cc2ncc(C(F)(F)F)cc2C(F)(F)F)c2ccc(F)cc2)nn1?
A: IC50 (second compound 0.0316 µM): > 10 µM; IC50 (second compound 0.1 µM): > 10 µM; IC50 (second compound 0.316 µM): > 10 µM; IC50 (second compound 1 µM): > 10 µM; IC50 (second compound 3.16 µM): > 10 µM; IC50 (second compound 10 µM): > 10 µM; viability, T/C [1]: 101%; viability, T/C [2]: 113%; viability, T/C [3]: 93.8%; viability, T/C [4]: 91.9%; viability, T/C [5]: 68.7%; viability, T/C [6]: 54.7%; viability, T/C [7]: 117%; viability, T/C [8]: 112%; viability, T/C [9]: 101%; viability, T/C [10]: 108%; viability, T/C [11]: 64.9%; viability, T/C [12]: 54.4%; viability, T/C [13]: 103%; viability, T/C [14]: 105%; viability, T/C [15]: 119%; viability, T/C [16]: 76.5%; viability, T/C [17]: 66.5%; viability, T/C [18]: 54.9%; viability, T/C [19]: 107%; viability, T/C [20]: 93.8%; viability, T/C [21]: 96.4%; viability, T/C [22]: 90.8%; viability, T/C [23]: 61.3%; viability, T/C [24]: 56.4%; viability, T/C [25]: 102%; viability, T/C [26]: 99%; viability, T/C [27]: 103%; viability, T/C [28]: 89%; viability, T/C [29]: 65.1%; viability, T/C [30]: 53.3%; viability, T/C [31]: 101%; viability, T/C [32]: 110%; viability, T/C [33]: 95.5%; viability, T/C [34]: 94.7%; viability, T/C [35]: 68.9%; viability, T/C [36]: 54.5%

Reference: PubChem BioAssay AID1963842 (Molecular Pharmacology Branch, DTP, NCI, 2024)
